Tests used:
MCF7 = test: Breast Cancer Cell Proliferation Assay (MCF-7); assay type: cell-based; conditions: Homo sapiens, 120 h; MCF7 cells, 5 days of compound exposure, Cell Titer-Glo
Experimental: Breast Cancer Cell Proliferation Assay (MCF-7)
MCF7 was expanded and maintained in the medium (Phenol red free DMEM/F12 (Hyclone SH30272.01) NEAA (Gibco11140-050) Na-pyruvate (Gibco 11360-070) and Re-stripped Charcoal stripped FBS (Gemini 100-119)). The cells were adjusted to a concentration of 3,000 cells per mL in the above media, and the cells were incubated (37° C., 5% CO2). The following day a 10 point, serial dilution of compounds was added to the cells at a final concentration ranging from 10-0.000005 μM for test compounds (17β-estradiol was used as a control). Additional cells were plated in 30 wells to serve as the day 1 (pretreatment) comparison. After 5 days of compound exposure, Cell Titer-Glo reagent was added to the cells and the relative luminescence units (RLUs) of each well was determined. Cell Titer-Glo was also added to 32 μL of medium without cells to obtain a background value. The plates were allowed to incubate at room temperature for 10 minutes to stabilize luminescent signal and the luminescence signal was recorded with EnSpire. The relative increase in cell number of each sample is determined as follows: (RLU sample-RLU background/RLU estrogen only treated cells-RLU background)×100=% inhibition.

ERα = biological target: T1, ERα (Homo sapiens, UniProt P03372); test: ER Degradation Determination by Western Blot; assay type: cell-based; conditions: MCF-7 cells, 10 μM, 18-24 hours
T1 construct: endogenous in cells; host or cells: MCF-7
T1 sequence (P03372 1-595): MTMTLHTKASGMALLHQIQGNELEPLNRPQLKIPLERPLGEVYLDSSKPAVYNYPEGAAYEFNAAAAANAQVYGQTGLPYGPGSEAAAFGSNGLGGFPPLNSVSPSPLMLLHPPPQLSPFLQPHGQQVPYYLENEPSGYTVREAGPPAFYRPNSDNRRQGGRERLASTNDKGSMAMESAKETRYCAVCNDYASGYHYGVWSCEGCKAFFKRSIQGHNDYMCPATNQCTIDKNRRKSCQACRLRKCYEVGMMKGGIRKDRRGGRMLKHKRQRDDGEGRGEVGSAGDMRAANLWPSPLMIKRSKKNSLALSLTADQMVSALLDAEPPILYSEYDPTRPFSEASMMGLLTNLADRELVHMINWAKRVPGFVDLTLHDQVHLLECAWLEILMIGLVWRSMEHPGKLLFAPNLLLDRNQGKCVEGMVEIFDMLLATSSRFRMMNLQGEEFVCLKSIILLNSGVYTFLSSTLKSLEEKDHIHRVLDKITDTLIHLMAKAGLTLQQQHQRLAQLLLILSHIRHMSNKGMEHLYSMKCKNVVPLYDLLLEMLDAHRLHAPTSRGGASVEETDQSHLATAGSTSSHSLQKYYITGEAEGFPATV
Experimental: ER Degradation Determination by Western Blot
MCF-7 cells are plated at 0.3 million cells/mL (3 mL/well) in 6-well plates in experiment media and incubated at 37° C., 5% CO2 for […]. Next day, 10× solution of compounds are made in DMSO and added the solution to the cells to achieve a final concentration of 10 μM. A DMSO control is included to enable a determination of the relative efficacy of test compounds. Fulvestrant is used as a positive control for ER-alpha degradation, and 4-OH tamoxifen as a control for receptor stabilization. After incubating cells with compounds for 18-24 hours, cell lysates are prepared (2× Cell lysis buffer:100 mM Tris, pH 8, 300 mM NaCl, 2% NP40, 1% Na deoxycholate, 0.04% SDS, 2 mM EDTA) and mixed thoroughly and incubated on ice. The protein concentration is quantified using BCA kit. […] The gel was then transferred onto a nitrocellulose membrane. […] GAPDH protein was used as an internal control.

[1] = Pharmacokinetic Determination (Rat PK); assay type: in vivo; conditions: plasma, female SD rats; for Vd: read-out: Vdss; for bioavailability: PO 10.0 mg/kg vs IV 3.0 mg/kg
Experimental: Example D Pharmacokinetic Determination
Grouping female SD rats weighing 200-300 g randomly to two groups; one group was administered with test compound at a dose of 3.0 mg/kg by intravenous injection, the other group was administered with test compound at a dose of 10.0 mg/kg by oral. The formulation for IV groups is DMSO/PEG400/150 mM glycine (pH 9) (5/10/85) and the formulation for PO groups is PEG400/PVP/Tween 80/0.5% CMC in water (9/0.5/0.5/90). After administering, blood samples of intravenous injection group were collected at time points of predose, 0.0833, 0.25, 0.5, 1, 2, 4, 8, 12 and 24 h; blood samples of oral group were collected at time points of predose, 0.25, 0.5, 1, 2, 4, 8, 12, and 24 h. Standard curve was plotted based on concentrations of the samples in a suitable range, the concentrations of test compounds in plasma samples were determined by using LC-MS/MS. Pharmacokinetic parameters were calculated according to drug concentration-time curve using a noncompartmental method by WinNonLin (Phoenix™, version 6.1) or other similar software.

| Structure (SMILES) | IC50 (MCF7) [nM] | ERα % degradation (ERα) | AUC(0-inf) ([1]; IV, 3.0 mg/kg) [µM·h] | clearance ([1]; IV, 3.0 mg/kg) [mL/min/kg] | half-life ([1]; IV, 3.0 mg/kg) [h] | Vd ([1]; IV, 3.0 mg/kg) [L/kg] | bioavailability [1] [%] | AUC(0-inf) ([1]; PO, 10.0 mg/kg) [µM·h] | Cmax ([1]; PO, 10.0 mg/kg) [µM] | half-life ([1]; PO, 10.0 mg/kg) [h] | Tmax ([1]; PO, 10.0 mg/kg) [h] | melting point [°C] |
| --- | --- | --- | --- | --- | --- | --- | --- | --- | --- | --- | --- | --- |
| C[C@@H]1Cc2c([nH]c3ccccc23)[C@@H](c2c(F)cc(/C=C/C(=O)O)cc2F)N1C12CC(C1)C2 [Example 11A, (E)-3-(4-((1R,3R)-2-(Bicyclo[1.1.1]pentan-1-yl)-3-methyl-2,3,4,9-tetrahydro-1H-pyrido[3,4-b]indol-1-yl)-3,5-difluorophenyl)acrylic acid] | ≤ 25 | A (A = ERα % degradation ≥80%) | 96 | 1.2 | 4.2 | 0.48 | 88 | 283 | 33 | 3.5 | – | – |
| C[C@@H]1Cc2c([nH]c3ccccc23)[C@@H](c2c(F)cc(/C=C/C(=O)O)cc2F)N1CC(C)(C)F [AZD9496, (E)-3-(3,5-Difluoro-4-((1R,3R)2-(2-fluoro-2-methylpropyl)-3-methyl-2,3,4,9-tetrahydro-1H-pyrido[3,4b]indol-1-yl)phenyl)acrylic acid, reference compound] | ≤ 25 | A (A = ERα % degradation ≥80%) | 72 | 1.6 | 7.8 | 0.8 | 74 | 179 | 16.1 | 6.4 | 4 | – |
| C[C@@H]1Cc2c([nH]c3ccc(F)cc23)[C@@H](c2c(F)cc(/C=C/C(=O)O)cc2F)N1CC(C)(C)F [Example 21A, (E)-3-(3,5-Difluoro-4-((1R,3R)-6-fluoro-2-(2-fluoro-2-methylpropyl)-3-methyl-2,3,4,9-tetrahydro-1H-pyrido[3,4-b]indol-1-yl)phenyl)acrylic acid] | ≤ 25 | – | – | – | – | – | – | – | – | – | – | 128 to 130 |
| C[C@@H]1Cc2c([nH]c3ccccc23)[C@@H](c2c(F)cc(/C=C/C(=O)O)cc2F)N1CC12CC(C1)C2 [Example 5A, (E)-3-(4-((1R,3R)-2-(Bicyclo[1.1.1]pentan-1-ylmethyl)-3-methyl-2,3,4,9-tetrahydro-1H-pyrido[3,4-b]indol-1-yl)-3,5-difluorophenyl)acrylic acid] | ≤ 25 | A (A = ERα % degradation ≥80%) | 67 | 1.7 | 7.7 | 1 | 82 | 185 | 10.8 | 8.5 | 2 | – |
| C[C@@H]1Cc2c([nH]c3ccccc23)[C@@H](c2c(F)cc(/C=C/C(=O)O)cc2F)N1[C@@H]1CCOC1 [Example 8B, (E)-3-(3,5-Difluoro-4-((1R,3R)-3-methyl-2-((R)-tetrahydrofuran-3-yl)-2,3,4,9-tetrahydro-1H-pyrido[3,4-b]indol-1-yl)phenyl)acrylic acid] | 25 to 250 | B (B = ERα % degradation <80%) | – | – | – | – | – | – | – | – | – | – |
| C[C@@H]1Cc2c([nH]c3ccccc23)[C@@H](c2c(F)cc(/C=C/C(=O)O)cc2F)N1[C@H]1CCOC1 [Example 8A, (E)-3-(3,5-Difluoro-4-((1R,3R)-3-methyl-2-((S)-tetrahydrofuran-3-yl)-2,3,4,9-tetrahydro-1H-pyrido[3,4-b]indol-1-yl)phenyl)acrylic acid] | 25 to 250 | A (A = ERα % degradation ≥80%) | 22 | 5.2 | 3.2 | 0.6 | 109 | 80 | 24.5 | 2.1 | 0.5 | – |
